The source of these data is US20240124409A1, “GUAIANOLIDE SESQUITERPENE LACTONE DERIVATIVES AND PHARMACEUTICAL USE THEREOF” (NANJING UNIVERSITY OF CHINESE MEDICINE, priority 2021, published 2024).

The subject of test [1] is mouse acute lung injury model. Kind of test: Mouse acute lung injury model (LPS), ELISA. The note with it: title: serum (text b290: lung tissues), 12 μmol/kg. It counts as in vivo, C57BL/6 mice. As to the method:
In addition to the normal group injected intragastrically with PBS, other mice were injected intraperitoneally with LPS (7.5 mg/kg) to establish acute lung injury models. Three days before model establishment, the parent drug 1 (0.4 and 4 μmol/kg), the hydrochloride 22 (0.4 and 4 μmol/kg), the fumarate 23 (0.4 and 4 μmol/kg) and the positive drug Dex (12 μmol/kg) were administered intragastrically in advance, and LPS (7.5 mg/kg) was injected intraperitoneally half an hour after administration on the third day.
abdominal cavity was opened. The lungs were taken out, and rinsed twice with pre-cooled PBS. […] The remaining tissues were frozen at −70° C. for subsequent use.
20 mg of lung tissues were accurately weighed, rinsed with pre-cooled PBS solution, cut into small pieces by ophthalmic surgical scissors, and put into a glass homogenizer, into which was added 180 μL PBS (containing 1 mM PMSF). The mixture was homogenized at 60 HZ for 180 s, and centrifuged at 3000 rpm/min at 4° C. for 20 min. 1 μL supernatant was taken, the protein concentration of which was measured with Nanodrop and leveled, and could be used for subsequent experiments.

A further test deals with mouse sepsis model. In words: Mouse sepsis model (LPS), Q-PCR of inflammatory factors. Particulars: 12 μmol/kg i.g. More on the design: key: relative mRNA by 2^−ΔΔCt, normalized to Gapdh. It counts as in vivo, C57BL/6 mice. The source says: The mice were randomly divided into 8 groups, one of which was randomly selected as the normal group, and the other 7 groups were the model group, the parent drug 1 (0.4 and 4 μmol/kg), the hydrochloride 22 (4 μmol/kg), the fumarate 23 (0.4 and 4 μmol/kg) and dexamethasone (Dex, 12 μmol/kg) groups, respectively, with 6 mice in each group. 5 days before model establishment, the parent drug 1 (0.4 and 4 μmol/kg), the hydrochloride 22 (4 μmol/kg), the fumarate 23 (0.4 and 4 μmol/kg) and Dex (12 μmol/kg) were administered intragastrically. The mice in the normal group and model group were administered intragastrically the same volume of the solvent 0.5% CMC-Na. LPS (10 mg/kg) was injected intraperitoneally 1 hour after administration on the last day to establish a mouse sepsis model.
At 6 h after intraperitoneal injection of LPS, the mice were sacrificed by cervical dislocation, and the abdominal cavity was opened. The lungs, livers and kidneys were taken out, and rinsed twice with pre-cooled PBS. The lung tissues, liver left lobe tissues and kidney tissues of the mice were cut, and fixed with 4% paraformaldehyde for 24-48 h. The remaining tissues were frozen at −70° Cfor subsequent use.
20 mg of kidney, lung and liver tissues were accurately weighed, rinsed with pre-cooled PBS solution, cut into small pieces by ophthalmic surgical scissors, and put into a glass homogenizer, into which was added 1 mL Trizol reagent for grinding to prepare tissue homogenate. Subsequently, the homogenate was transferred into a 1.5 mL EP tube without RNase and lysed on ice for 10 min. 200 μL chloroform was added, and the mixture was shaken violently, stood on ice for 3-5 min, and centrifuged at 12000 rpm and 4° C. for 15 min. The supernatant was aspirated carefully into a new 1.5 mL EP tube without RNase, into which was added the same volume of pre-cooled isopropanol, stood on an ice bath for 30 min, centrifuged at 12000 rpm and 4° C. for 10 min, and the supernatant was discarded. 75% ethanol-DEPC solution was added to wash the precipitate, and the total RNA was obtained by inversion and air drying on flat paper. Subsequently, 10 μL of DEPC treated water was added for dissolution. 1 μL of the total RNA solution was taken, and diluted to 100 times, the OD values of which at 260 nm and 280 nm were measured with a full wavelength microplate reader. If the ratio of OD260/OD280 is between 1.8 and 2.0, it is said that the extracted RNA has a high purity, i.e., it can be used in subsequent experiments.
Subsequent experiments were carried out with 20 μL of a reverse transcription reaction system according to the method described in the kit instructions:
Subsequent experiments were carried out with 20 μL of a reaction system according to the method described in the kit instructions:
The above reagents were added into a micro-reaction tube, sealed with a sealing membrane, and placed in a Q-PCR instrument. The parameters were set according to the following reaction conditions to carry out the amplification experiment. The reaction conditions were as follows:
The threshold cycle (Ct) value of each group was recorded. Calculating and analyzing were carried out by the 2^−ΔΔCt method (the expression level of the control gene Gapdh was set to 1 to correct the expression level of the target gene).

Test [2] concerns acute gouty arthritis model rats induced by MSU. Kind of test: Rat acute gouty arthritis model induced by MSU. It counts as in vivo, SD rats. As to the method: During the adaptive feeding period, 2% pentobarbital sodium was used to anesthetize the rats by intraperitoneal injection at a dose of 0.25 mL/100 g. The circumferences of the ankle joints of the parent left hind limbs of the rats were measured. After the adaptive feeding, 2% pentobarbital sodium was used for intraperitoneal injection anesthesia at a dose of 0.25 mL/100 g. After the anesthesia, 8 rats were randomly selected as the blank group, and normal saline was injected into the joint cavity of their left hind limbs. The other rats were injected with 200 μL sodium urate into the joint cavity of the left hind limbs. 6 h after the model establishment, the rats were anesthetized with pentobarbital sodium, and the joint circumference was measured with a 2 mm wide paper strip. According to the joint swelling ratio, the rats were divided into seven groups.
Administration was carried out once at 10.5 h and 22.5 h after the model establishment, respectively.
Joint swelling is one of the main characteristics of acute gouty arthritis model rats induced by MSU. Before the model establishment, and at 6 h, 12 h and 24 h after the model establishment, the circumferences of the ankle joints of the left hind limbs were measured respectively, and the joint swelling ratios were calculated. The circumferences at 0.5 mm below the ankle joints of the left hind feet of rats in each group were measured with a 2 mm wide paper strip and a ruler, the measurement was repeated twice, and the average value was taken to calculate the joint swelling ratio.
Joint swelling ratio=(joint circumference at test time point−initial joint circumference)/initial joint circumference

[3] abbreviates: Table 12, title 'in lung' (text b281: liver).

For the compound `C[C@@H]1C[C@H]2[C@@H]3CCC4=CC(=O)C=C[C@]4(C)[C@@]3(F)[C@@H](O)C[C@]2(C)[C@@]1(O)C(=O)CO` [Dex, dexamethasone, reference compound], in test [1], the IL-1β is 1873.00 ± 86.52 pg/mL and the IL-6 is 1423.00 ± 168.40 pg/mL. In the test on mouse sepsis model (setting [3]), the “Il1 mRNA expression” value is 7.54 ± 0.70, the “Il6 mRNA expression” value amounted to 4.27 ± 1.33 and the “Tnf mRNA expression” value is recorded as 7.04 ± 0.77. Also, in the test on mouse sepsis model (kidney), the “Il1 mRNA expression” value amounted to 6.05 ± 1.03, the “Il6 mRNA expression” value was 5.76 ± 0.72 and the “Tnf mRNA expression” value was found to be 6.62 ± 0.68. In the test with mouse sepsis model (lung), the “Il1 mRNA expression” value is 7.20 ± 0.36, the “Il6 mRNA expression” value turned out to be 9.88 ± 0.80 and the “Tnf mRNA expression” value turned out to be 8.99 ± 0.76.
With `COc1cc2c(c(OC)c1OC)-c1ccc(OC)c(=O)cc1[C@@H](NC(C)=O)CC2` [colchicine], the joint swelling ratio in test [2] (6 h after model establishment (before dosing), 0.5 mg/kg i.g.) worked out at 16.15 ± 1.37; in test [2] (12 h after model establishment, 0.5 mg/kg i.g.) it was 29.10 ± 3.17; in test [2] (24 h after model establishment, 0.5 mg/kg i.g.), 23.28 ± 2.14.
Regarding `C[C@]12C=CC(=O)C=C1CC[C@@H]1[C@@H]2[C@@H](O)C[C@@]2(C)[C@H]1CC[C@]2(O)C(=O)CO` [prednisolone], the joint swelling ratio stood at 15.78 ± 1.22 in test [2] (6 h after model establishment (before dosing), 3.125 mg/kg i.g.); 25.43 ± 2.03 in test [2] (12 h after model establishment, 3.125 mg/kg i.g.); 18.48 ± 1.66 in test [2] (24 h after model establishment, 3.125 mg/kg i.g.).
